Tests used:
[1] = tested on: HCV replicons (NS3-NS5B regions of HCV type Ib) in Huh-7 luc/neo cells; assay: HCV replicon assay (Huh-Luc luciferase reporter); format: cell-based; conditions: Hepatitis C virus, Huh-7, 72 h; Huh-Luc replicon cells, three days incubation, luciferase activity; read-out: EC50
Experimental: The in vitro antiviral activity against HCV of the compounds of formula (I) was tested in a cellular HCV replicon system based on Lohmann et al. (1999) Science 285:110-113, with the further modifications described by Krieger et al. (2001) Journal of Virology 75: 4614-4624, which is further exemplified in the examples section. This model, while not a complete infection model for HCV, is widely accepted as the most robust and efficient model of autonomous HCV RNA replication currently available. […] It will be appreciated that it is important to distinguish between compounds that specifically interfere with HCV functions from those that exert cytotoxic or cytostatic effects in the HCV replicon model, and as a consequence cause a decrease in HCV RNA or linked reporter enzyme concentration. Assays are known in the field for the evaluation of cellular cytotoxicity based for example on the activity of mitochondrial enzymes using fluorogenic redox dyes such as resazurin. Furthermore, cellular counter screens exist for the evaluation of non-selective inhibition of linked reporter gene activity, such as firefly luciferase. Appropriate cell types can be equipped by stable transfection with a luciferase reporter gene whose expression is dependent on a constitutively active gene promoter, and such cells can be used as a counter-screen to eliminate non-selective inhibitors.
The compounds of formula (I) were examined for activity in the inhibition of HCV RNA replication in a cellular assay. […] The cellular assay was based on a bicistronic expression construct, as described by Lohmann et al. (1999) Science vol. 285 pp. 110-113 with modifications described by Krieger et al. (2001) Journal of Virology 75: 4614-4624, in a multi-target screening strategy. In essence, the method was as follows.
The assay utilized the stably transfected cell line Huh-7 luc/neo (hereafter referred to as Huh-Luc). This cell line harbors an RNA encoding a bicistronic expression construct comprising the wild type NS3-NS5B regions of HCV type Ib translated from an Internal Ribosome Entry Site (IRES) from encephalomyocarditis virus (EMCV), preceded by a reporter portion (FfL-luciferase), and a selectable marker portion (neo^R, neomycine phosphotransferase). The construct is bordered by 5′ and 3′ NTRs (non-translated regions) from HCV type Ib. Continued culture of the replicon cells in the presence of G418 (neo^R) is dependent on the replication of the HCV RNA. The stably transfected replicon cells that express HCV RNA, which replicates autonomously and to high levels, encoding inter alia luciferase, are used for screening the antiviral compounds.
The replicon cells were plated in 384 well plates in the presence of the test and control compounds which were added in various concentrations. Following an incubation of three days, HCV replication was measured by assaying luciferase activity (using standard luciferase assay substrates and reagents and a Perkin Elmer ViewLux™ ultraHTS microplate imager). Replicon cells in the control cultures have high luciferase expression in the absence of any inhibitor. The inhibitory activity of the compound on luciferase activity was monitored on the Huh-Luc cells, enabling a dose-response curve for each test compound.

[2] = In vitro metabolic blocking by ritonavir in human liver microsomes; format: in vitro ADME; conditions: 3 μM test compound, human liver microsomes 1 mg/ml, 37° C., % of initial concentration
Experimental: Compound nr 11 of Table 1 was tested in a metabolic blocking experiment using 3 μM test compound together with 10 μM ritonavir acting as booster.
The test compound and ritonavir were added to human liver microsomes (protein concentration 1 mg/ml) suspended in potassium phosphate buffer (pH=7.4), to get final reaction mixture concentrations of 3 μM test compound and 10 μM ritonavir. In the non-boosted parallel reactions, ritonavir was not added. Boiled human liver microsomes were used for blank experiments. After addition (in a 1:3 ratio) of a cofactor mixture consisting of β-nicotinamide adenine dinucleotide phosphate (β-NADP, 0.5 mg/ml, 653.2 μM), D-Glucose-6-phosphate (2 mg/ml, 7.1 mM), Glucose-6-phosphate dehydrogenase (1.5 U/ml) in 2% NaHCO3, the reaction mixture was incubated at 37° C. for 30 or 120 minutes after which the reaction was stopped by increasing the temperature to 95° C. Test compound concentrations were determined using HPLC-MS.
Values are percentages of the test compound detected after the indicated incubation times as compared to the initial test compound concentration. Each value is the mean of the results of two independent experiments.

Compound	EC50 [1] [µM]	further results
COc1ccc2c(O[C@@H]3C[C@H]4C(=O)N[C@]5(C(=O)NS(=O)(=O)C6CC6)C[C@H]5CCCCCCCC(=O)N4C3)cc(-c3nc(C(C)C)cs3)nc2c1 (stereo in doubt) [Compound 64, N-[17-[2-(4-isopropylthiazol-2-yl)-7-methoxyquinolin-4-yloxy]-2,14-dioxo-3,15-diazatricyclo[13.3.0.0^4,6]octadecane-4-carbonyl]-(cyclopropyl)sulfonamide]	0.067	–
COc1ccc2c(O[C@@H]3C[C@H]4C(=O)N[C@]5(C(=O)NS(=O)(=O)C6CC6)C[C@H]5/C=C\CCCCCCC(=O)N4C3)cc(-c3nc(C(C)C)cs3)nc2c1 [Compound 11, N-[[18-[2-[4-(isopropyl)thiazol-2-yl]-7-methoxyquinolin-4-yloxy]-2,15-dioxo-3,16-diazatricyclo[14.3.0.0^4,6]nonadec-7-en-4-yl]carbonyl](cyclopropyl)sulfonamide]	0.017	% Detected Compound ([2]; 30′ incubation, No Booster): 28%; % Detected Compound ([2]; 30′ incubation, with 10 μM ritonavir): 79%; % Detected Compound ([2]; 120′ incubation, No Booster): 0%; % Detected Compound ([2]; 120′ incubation, with 10 μM ritonavir): 91%
COc1ccc2c(O[C@@H]3C[C@H]4C(=O)N[C@]5(C(=O)O)C[C@H]5/C=C\CCCCCCC(=O)N4C3)cc(-c3nc(C(C)C)cs3)nc2c1 [Compound 10, 18-[2-[4-(isopropyl)thiazol-2-yl]-7-methoxyquinolin-4-yloxy]-2,15-dioxo-3,16-diazatricyclo[14.3.0.0^4,6]nonadec-7-ene-4-carboxylic acid]	5.04	–
COc1ccc2c(O[C@@H]3C[C@H]4C(=O)N[C@]5(C(=O)NS(=O)(=O)C6CC6)C[C@H]5/C=C\CCCCCCC(=O)N4C3)cc(-c3nccs3)nc2c1C [Compound 26, N-[18-[2-(thiazol-2-yl)-7-methoxy-8-methylquinolin-4-yloxy]-2,15-dioxo-3,16-diazatricyclo[14.3.0.0^4,6]nonadec-7-ene-4-carbonyl]-(cyclopropyl)sulfonamide]	0.004	–
COc1ccc2c(O[C@@H]3C[C@H]4C(=O)N[C@]5(C(=O)NS(=O)(=O)C6CC6)C[C@H]5/C=C\CCCCCCC(=O)N4C3)cc(-c3nccs3)nc2c1 [Compound 32, N-[18-[7-methoxy-2-(thiazol-2-yl)quinolin-4-yloxy]-2,15-dioxo-3,16-diazatricyclo[14.3.0.0^4,6]nonadec-7-ene-4-carbonyl](cyclopropyl)-sulfonamide]	0.017	–
COc1ccc2c(O[C@@H]3C[C@H]4C(=O)N[C@]5(C(=O)O)C[C@H]5/C=C\CCCCCCC(=O)N4C3)cc(-c3nccs3)nc2c1 [Compound 31, 18-[7-methoxy-2-(thiazol-2-yl)quinolin-4-yloxy]-2,15-dioxo-3,16-diazatricyclo[14.3.0.0^4,6]nonadec-7-ene-4-carboxylic acid]	4.94	–
